Results on five molecules are retold here after patent publication US8900549B2, “Compositions and methods for delivering a substance to a biological target” (The General Hospital Corporation, priority 2008, dated 2014).

One assay concerns PtK2 rat kidney cells. Nature of the assay: Live cell labeling and confocal imaging of trans-cyclooctene taxol with tetrazine probes. Format: cell-based, rat kangaroo. Particulars: for staining of intracellular structures by confocal microscopy: 1 μM trans-cyclooctene taxol 1 hour 37° C., wash, then 1 μM tetrazine probe 20 minutes room temperature. As for the experimental part:
For live cell studies, PtK2 […] cells were incubated in cell media containing 1 μM trans-cyclooctene taxol for 1 hour at 37° C. After washing with media three times, the cells were exposed to media containing 1 μM tetrazine-BODIPY FL for 20 minutes at room temperature. The cells were then washed and imaged on a confocal microscope. […] Taxol® is known to bind the microtubular networks of cells and there have been several reports of fluorescent taxol derivatives that can be used to image microtubular networks (Evangelio et al., 1998, Cell Motil Cytoskeleton, 39, 73-90; Guy et al., 1996, Chem Biol, 3, 1021-31; Souto et al., 1995, Angew. Chem. Int. Ed., 34, 2710-2712). In addition to tubular structures, the perinuclear region was stained. This staining is due to nonspecific uptake of the taxol analog by intracellular membranes such as the endoplasmic reticulum and Golgi.

In a further assay the test system is EGFR on A549 cells. As to the kind of experiment: Pretargeted live cell labeling with trans-cyclooctene cetuximab and tetrazine-VT680, confocal microscopy. Format: cell-based, human.
Assay [1] relates to trans-cyclooctene bound to antibody. As to the kind of experiment: Kinetic measurements of tetrazine cycloaddition to surface-absorbed trans-cyclooctene modified antibody. Type of assay: physicochemical. Particulars: PBS at 37° C.; 375, 750 and 1000 nM tetrazine; slope of pseudo first order rate constants versus concentration. The protocol:
trans-cyclooctene modified antibody was physically absorbed onto polystyrene by immersing the surfaces in a 0.1 mg/mL solution of antibody in PBS for 3 hours. After numerous washes with PBS, the surface was exposed to 750 nM tetrazine VT680 in PBS at 37° C. After 5 minutes, the tetrazine solution was removed and the surface washed 3 times with PBS. The fluorescence due to the VT680 dye was measured on a fluorescence plate reader (Tecan Safire 2) and corrected for background fluorescence. The surface was again exposed to the tetrazine solution and the entire process repeated at 10, 15, 30, and 60 minutes. The fluorescence measurements were plotted versus time, fitted to a first order exponential growth curve and the pseudo first order rate constant determined The entire experiment was repeated using two different concentrations of tetrazine (375 nM and 1000 nM) and the pseudo first order rate constants from all three experiments were plotted versus concentration, fitted to a straight line; the slope of the line was 6000±200 M−1sec−1 and was reported at the second order rate constant for the reaction between tetrazine VT680 and trans-cyclooctene bound to antibody.

In another assay the test system is tubulin. Nature of the assay: Tubulin polymerization assay in the absence of GTP (optical density at 350 nm). Type of assay: biochemical. To be noted: tubulin monomer, versus DMSO control. An excerpt:
To test the activity of the trans-cyclooctene taxol analog, we tested for the well known ability of Taxol® to polymerize tubulin in the absence of GTP (Shelanski et al., 1973, Proc Natl Acad Sci USA, 70, 765-8; Schiff and Horwitz, 1981, Biochemistry, 20, 3247-52). Optical density measurements at 350 nm (FIG. 6B) were used to determine the degree of tubulin polymerization after exposure of tubulin monomer to Taxol®, trans-cyclooctene taxol, and a DMSO control. […] Taxol trans-cyclooctene induced tubule bundles could be visualized by subsequent staining with tetrazine fluorophore probes such as tetrazine-BODIPY FL yielding brightly fluorescent tubule structures that could be imaged by fluorescent microscopy (FIG. 6c).

Assay [2] has as its system Her2/neu growth factor receptors on SKBR-3 human mammary carcinoma cells. Nature of the assay: Live cell labeling with norbornene-modified trastuzumab and tetrazine-VT680, fluorescence microscopy. Type of assay: cell-based. An excerpt:
Norbornene carboxylic acid ((1S,2S,4S)-bicyclo[2.2.1]hept-5-en-2-yl acetic acid) was stirred for three hours with 1.1 equivalents of disuccinimidyl carbonate in acetontrile using 1 equivalent of pyridine as base. After reaction, solvent and base were removed by rotary evaporation and the crude norbornene succinimidyl ester with N-hydroxysuccinimide side product was recovered. Commercially purchased humanized anti-HER2/neu antibody trastuzumab (Genentech, San Francisco, Calif.) in 0.1M sodium bicarbonate buffer (pH 8.2) was incubated for three hours at room temperature with a 5 molar excess of 5-(and-6)-carboxytetramethylrhodamine, succinimidyl ester (Invitrogen) and a 30 molar excess of crude norbornene succinimidyl ester. The antibody was then isolated and washed by centrifuge purification and stored in PBS buffer. Control antibody was modified in an identical manner but excluding the norbornene NHS.
SKBR-3 human mammary carcinoma cell lines were maintained in complete McCoy's medium. Cells were incubated at 37° C. with 200 nM modified trastuzumab for 30 minutes and then washed twice with 10% fetal bovine serum (FBS) in Hanks balanced salt solution (HBSS). Tetrazine labeling was performed by incubating the cells for 30 minutes at 37° C. in 10% FBS/HBSS containing 50 μM of tetrazine-VT680. Cells were then washed twice with 10% FBS/HBSS and imaged with by fluorescence microscopy.

Procedure for EGFR on A549 cells: The human lung adenocarcinoma epithelial cell line A549 was selected for all experiments due to its mid-level over-expression of EGFR. The cell line was maintained in a standard ATCC formulated F-12K media supplemented with 10% fetal bovine serum and 5% penicillin/streptomycin.
Cells were grown on break away glass chamber slides and washed six times after administering either imaging agent. A multichannel upright laser-scanning confocal microscope (FV1000; Olympus) was used to image live cells with a 60× water immersion objective lens. Image collection and fluorophore excitations with lasers at 488 nm (EGFP), 543 nm (AF555), and 633 nm (VT680) were done serially to avoid cross talk between channels. Data were acquired with Fluoview software (version 4.3; Olympus) and image stacks were processed and analyzed with ImageJ software (version 1.41, Bethesda Md.).
Direct labeling of the antibodies with AF555 was monitored in the red channel.

For “3-(p-Benzylamino)-tetrazine-VT680 Conjugate”, the “staining of intracellular structures by confocal microscopy” value (from here on “staining of intracellular structures”) with PtK2 rat kidney cells is “showed intracellular structures reflecting microtubule networks”; in the assay on PtK2 rat kidney cells (listed as sulfonated Vivo-Tag 680 tetrazine), “very little staining and an absence of tubular structures”. The “colocalization of NIR (VT680) signal with AF555-labeled antibody” value with EGFR on A549 cells (A549 cells pretargeted with AF555-labeled trans-cyclooctene cetuximab, then tetrazine-VT680) is “excellent colocalization of the AF555 and VT680 signals with little background fluorescence”. In addition, the “NIR fluorescence in control experiments” value in the assay with EGFR on A549 cells (unlabeled cetuximab and tetrazine-VT680, or trans-cyclooctene-cetuximab and unlabeled VT680) is “no NIR fluorescence”. Also, the “second order rate constant” value in assay [1] turned out to be 6000 ± 200 M⁻¹ s⁻¹.

In the case of `CC(=O)O[C@H]1C(=O)[C@@]2(C)[C@H]([C@H](OC(=O)c3ccccc3)[C@]3(O)C[C@H](OC(=O)[C@H](O)[C@@H](NC(=O)c4ccccc4)c4ccccc4)C(C)=C1C3(C)C)[C@]1(OC(C)=O)CO[C@@H]1C[C@@H]2O` [Taxol®, paclitaxel, reference compound], the “degree of tubulin polymerization (optical density at 350 nm)” value in the assay on tubulin is “induced polymerization”.

In the case of “5-(4-(1,2,4,5-Tetrazin-3-yl)benzylamino)-5-oxopentanoic Acid [Example 3]”, the “labeling of cells in rhodamine and NIR fluorescence channels” value in assay [2] (200 nM norbornene- and rhodamine-modified trastuzumab 30 minutes, then 50 μM tetrazine-VT680 30 minutes 37° C. in 10% FBS/HBSS) is reported as “Significant labeling, which colocalizes”. Further, in assay [2] (control antibody containing rhodamine but not norbornene), the “NIR labeling with control antibody” value is reported as “no NIR labeling”.

As to `CC(=O)OC1C(=O)C2(C)C(OC(=O)CCNC(=O)OC3CCC=CCCC3)CC3OCC3(OC(C)=O)C2C(OC(=O)c2ccccc2)C2(O)CC(OC(=O)C(O)C(NC(=O)c3ccccc3)c3ccccc3)C(C)=C1C2(C)C` (stereo not drawn) [trans-cyclooctene taxol], the “staining of intracellular structures” value with PtK2 rat kidney cells is recorded as “tubular structures were clearly stained”. In addition, the “degree of tubulin polymerization (optical density at 350 nm)” value with tubulin is given as “induced polymerization”.

As to `Cc1cc(C)n2c1C=C1C=CC(CCC(=O)NCc3ccc(-c4nncnn4)cc3)=[N+]1[B-]2(F)F` [tetrazine-BODIPY FL], in the assay with PtK2 rat kidney cells, the “staining of intracellular structures” value is “tubular structures were clearly stained”. For the same molecule, the “fluorescent background in control experiments” value with PtK2 rat kidney cells (tetrazine-BODIPY FL alone or with unmodified taxol) was “minimal fluorescent background”.
